Source: ChEMBL document CHEMBL1141050, “Design and synthesis of a novel peptidomimetic inhibitor of HIV-1 Tat-TAR interactions: squaryldiamide as a new potential bioisostere of unsubstituted guanidine” (Bioorg Med Chem Lett, 2005)

Tests used:
Set-up in all cases: species or system Human immunodeficiency virus 1
[1] = biological target: T1, Protein Tat (Human immunodeficiency virus type 1 group M subtype B (isolate HXB2)(HIV-1), UniProt P04608); assay: In vitro binding affinity towards Tat/TAR to determine interaction between TAR RNA and Tat peptide at room temperature using fluorescence spectrophotometer
T1 sequence (P04608 whole entry): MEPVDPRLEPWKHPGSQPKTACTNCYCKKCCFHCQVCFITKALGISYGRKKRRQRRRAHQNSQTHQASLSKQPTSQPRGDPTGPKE

[2] = biological target: T1, Protein Tat; assay: In vitro binding affinity towards Tat/TAR to determine interaction between TAR RNA and Tat peptide at room temperature using fluorescence spectrophotometer; nb denotes no binding
[3] = biological target: T1, Protein Tat; assay: In vitro binding affinity towards Tat/TAR to determine interaction between TAR RNA and Tat peptide at room temperature using fluorescence spectrophotometer; mb denotes multiple binding

| SMILES | Kd [1] [µM] | further results |
| --- | --- | --- |
| N=C(N)NCCC[C@H](N)COC(=O)N(CCCCN)CC(=O)N[C@H](CCCCN)COC(N)=O | 1.8 | – |
| NCCCC[C@H](COC(N)=O)NC(=O)CN(CCCCN)C(=O)OCCN | – | Kd [2]: Not Active |
| NC(=O)OCCNC(=O)CNC(=O)OC[C@@H](N)CCCN=C(N)N | – | Kd [3]: Multiple binding |
| N=c1c(O)c(O)/c1=N\CCCC(N)COC(=O)NC(CCCN=C(N)N)COC(N)=O (configuration not stated) | 741 | – |
| N=c1c(O)c(O)/c1=N\CCCC(N)COC(=O)NC(CCCCN)COC(N)=O (configuration not stated) | – | Kd [2]: Not Active |
| NCCCC[C@H](COC(N)=O)NC(=O)CN(CCCCN)C(=O)OC[C@@H](N)CCCN=C(N)N[N+](=O)[O-] | 952 | – |
| N=c1c(O)c(O)/c1=N/CCC[C@H](N)COC(=O)N(CCCCN)CC(=O)N[C@H](CCCCN)COC(N)=O | 7.7 | – |
